In ChEMBL document CHEMBL1208727, “Synthesis and pharmacological evaluation of aryl aminosulfonamide derivatives as potent 5-HT(6) receptor antagonists” (Bioorg Med Chem Lett, 2010):
The source made the active and inactive calls. The calls are words filed in the database; no cut-off is given here.

Key:
[1] = target: 5-hydroxytryptamine receptor 6 (Homo sapiens, UniProt P50406); experiment: Binding affinity to human recombinant 5HT6 receptor expressed in CHO cells coexpressing pCRE-Luc assessed as inhibition of serotonin-induced increase in cAMP level by luciferase reporter gene assay; assay type: cell-based
5-hydroxytryptamine receptor 6, sequence (P50406 whole entry): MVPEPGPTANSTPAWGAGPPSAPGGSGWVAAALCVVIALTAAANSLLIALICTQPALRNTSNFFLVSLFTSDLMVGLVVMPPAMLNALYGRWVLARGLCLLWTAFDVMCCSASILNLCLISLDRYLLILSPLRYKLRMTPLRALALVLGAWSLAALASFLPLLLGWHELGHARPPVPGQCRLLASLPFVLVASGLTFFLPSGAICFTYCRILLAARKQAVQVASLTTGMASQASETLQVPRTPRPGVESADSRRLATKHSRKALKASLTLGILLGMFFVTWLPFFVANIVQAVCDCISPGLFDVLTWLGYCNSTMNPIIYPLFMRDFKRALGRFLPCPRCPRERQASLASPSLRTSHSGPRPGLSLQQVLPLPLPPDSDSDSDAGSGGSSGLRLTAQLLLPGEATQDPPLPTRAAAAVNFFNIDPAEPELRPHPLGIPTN

Cytochrome P450 2D6 = Cytochrome P450 2D6 (Homo sapiens, UniProt P10635); experiment: Inhibition of human CY2D6
Cytochrome P450 2D6, sequence (P10635 whole entry): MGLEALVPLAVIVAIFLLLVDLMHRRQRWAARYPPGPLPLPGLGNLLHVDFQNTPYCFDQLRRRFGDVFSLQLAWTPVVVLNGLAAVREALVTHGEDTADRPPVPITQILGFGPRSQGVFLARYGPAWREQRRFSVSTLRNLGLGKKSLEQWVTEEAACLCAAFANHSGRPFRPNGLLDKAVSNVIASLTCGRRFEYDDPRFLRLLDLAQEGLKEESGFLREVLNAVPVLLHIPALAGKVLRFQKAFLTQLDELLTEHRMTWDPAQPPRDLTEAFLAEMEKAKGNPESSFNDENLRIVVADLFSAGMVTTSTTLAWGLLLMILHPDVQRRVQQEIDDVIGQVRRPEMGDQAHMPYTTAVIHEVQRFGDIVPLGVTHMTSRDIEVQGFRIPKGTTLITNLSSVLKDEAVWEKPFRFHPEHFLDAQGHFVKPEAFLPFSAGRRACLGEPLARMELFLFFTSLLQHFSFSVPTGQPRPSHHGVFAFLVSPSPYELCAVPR

Cytochrome P450 3A4 = Cytochrome P450 3A4 (Homo sapiens, UniProt P08684); experiment: Inhibition of human CY3A4
Cytochrome P450 3A4, sequence (P08684 whole entry): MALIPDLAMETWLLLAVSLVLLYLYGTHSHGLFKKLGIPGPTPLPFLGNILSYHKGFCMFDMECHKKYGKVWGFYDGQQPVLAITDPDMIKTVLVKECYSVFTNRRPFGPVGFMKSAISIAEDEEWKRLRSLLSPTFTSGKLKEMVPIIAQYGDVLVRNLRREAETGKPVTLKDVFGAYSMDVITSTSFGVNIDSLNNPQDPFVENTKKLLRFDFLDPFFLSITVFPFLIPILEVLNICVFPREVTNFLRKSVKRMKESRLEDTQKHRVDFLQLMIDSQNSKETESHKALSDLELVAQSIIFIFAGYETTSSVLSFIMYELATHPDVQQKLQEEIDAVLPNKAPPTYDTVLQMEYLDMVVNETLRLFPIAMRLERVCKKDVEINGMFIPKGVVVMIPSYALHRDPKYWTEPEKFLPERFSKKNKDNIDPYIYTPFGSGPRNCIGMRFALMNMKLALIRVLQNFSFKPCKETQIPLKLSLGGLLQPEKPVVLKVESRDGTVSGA

[2] = Metabolic stability in human liver microsomes at […] after 30 mins; assay type: ADME, Microsome; conditions: read-out: Stability
[3] = Metabolic stability in Wistar rat liver microsomes at […] after 30 mins; assay type: ADME, Microsome; conditions: read-out: Stability
[4] = Cmax in Wistar rat at 10 mg/kg, po; assay type: ADME, organism-based; parameters: dose 10 mg/kg, route oral; conditions: in vivo
[5] = AUCt in Wistar rat at 10 mg/kg, po; assay type: ADME, organism-based; parameters: dose 10 mg/kg, route oral; conditions: plasma
[6] = Half life in Wistar rat at 10 mg/kg, po; assay type: ADME, organism-based; parameters: dose 10 mg/kg, route oral; conditions: in vivo
Rattus norvegicus [7] = experiment: Apparent volume of distribution in Wistar rat at 10 mg/kg, po; assay type: ADME, organism-based; parameters: dose 10 mg/kg, route oral; conditions: in vivo
[8] = Clearance in Wistar rat at 10 mg/kg, po; assay type: ADME, organism-based; parameters: dose 10 mg/kg, route oral; conditions: in vivo
[9] = Oral bioavailability in Wistar rat at 10 mg/kg; assay type: ADME, organism-based; conditions: in vivo
[10] = Cmax in Wistar rat at 10 mg/kg, iv; assay type: ADME, organism-based; parameters: dose 10 mg/kg, route intravenous; conditions: in vivo
[11] = AUCt in Wistar rat at 10 mg/kg, iv; assay type: ADME, organism-based; parameters: dose 10 mg/kg, route intravenous; conditions: plasma
[12] = Half life in Wistar rat at 10 mg/kg, iv; assay type: ADME, organism-based; parameters: dose 10 mg/kg, route intravenous; conditions: in vivo
[13] = Apparent volume of distribution in Wistar rat at 10 mg/kg, iv; assay type: ADME, organism-based; parameters: dose 10 mg/kg, route intravenous; conditions: in vivo, read-out: Vz
[14] = Clearance in Wistar rat at 10 mg/kg, iv; assay type: ADME, organism-based; parameters: dose 10 mg/kg, route intravenous; conditions: in vivo
[15] = Ratio of drug level brain to plasma in Wistar rat; assay type: ADME
Rattus norvegicus [16] = experiment: Cognitive enhancing effect in Wistar rat at 10 mg/kg, po by novel object recognition test; assay type: functional, organism-based; parameters: dose 10 mg/kg
Rattus norvegicus [17] = organism: Rattus norvegicus; experiment: Cognitive enhancing effect against scopolamine-induced acquisition memory deficit in Wistar rat by morris water maze test; assay type: functional, organism-based

Kb [1] [nM]	Compound	also measured
4.26	COc1ccc(S(=O)(=O)NCc2ccccc2)cc1NC1CCNCC1	
0.19	CCc1ccc(S(=O)(=O)Nc2ccccc2Br)cc1NC1CCN(C)CC1	IC50 (Cytochrome P450 2D6): > 45000 nM; IC50 (Cytochrome P450 3A4): 9620 nM; remaining at 0.5 h, […] [2]: 26%; remaining at 0.5 h, […] [3]: 99%
0.1	CCc1ccc(S(=O)(=O)Nc2ccccc2Br)cc1NC1CCNCC1	
16	COc1ccc(OC)c(NS(=O)(=O)c2cccc(NC3CCN(C)CC3)c2)c1	
12.2	CN1CCC(Nc2cccc(S(=O)(=O)Nc3ccc(Br)cc3F)c2)CC1	
1.23	COc1ccc(S(=O)(=O)Nc2ccccc2)cc1NC1CCN(C)CC1	
1.31	Cc1ccc(S(=O)(=O)Nc2ccccc2Br)cc1NC1CCN(C)CC1	
3.36	COc1ccc(S(=O)(=O)NCc2ccccc2)cc1NC1CCN(C)CC1	
0.6	COc1ccc(S(=O)(=O)Nc2ccccc2Br)cc1NC1CCNCC1	
> 10000	CN1CCC(Nc2cccc(S(=O)(=O)Nc3c(F)cc(F)cc3Br)c2)CC1	
	COc1ccc(NS(=O)(=O)c2ccccc2OC(F)F)cc1N1CCNCC1	Ki [1]: < 10 nM
0.584	COc1ccc(S(=O)(=O)Nc2ccccc2Cl)cc1NC1CCN(C)CC1	
1.65	CCc1ccc(S(=O)(=O)Nc2cc(Cl)cc(Cl)c2OC)cc1NC1CCN(C)CC1	
> 10000	Cc1ccc(NS(=O)(=O)c2cccc(NC3CCN(C)CC3)c2)c(C)c1	
0.48	COc1ccc(S(=O)(=O)Nc2ccccc2Cl)cc1NC1CCNCC1	
10	COc1ccc(NS(=O)(=O)c2cccc(NC3CCN(C)CC3)c2)c(OC)c1	
0.02	COc1ccc(S(=O)(=O)Nc2cc(Cl)cc(Cl)c2OC)cc1NC1CCN(C)CC1	Cmax [4]: 536 ng/mL; AUC(0-t) [5]: 941 ng·h/mL; half-life [6]: 1.72 h; Vz (Rattus norvegicus [7]): 34.332 L/kg; CL/F [8]: 207 mL/min/kg; bioavailability [9]: 38%; Cmax [10]: 1920 ng/mL; AUC(0-t) [11]: 2530 ng·h/mL; half-life [12]: 2.96 h; Vd [13]: 16.9 L/kg; clearance [14]: 65.5 mL/min/kg; IC50 (Cytochrome P450 2D6): 41700 nM; IC50 (Cytochrome P450 3A4): 8440 nM; remaining at 0.5 h, […] [2]: 21%; remaining at 0.5 h, […] [3]: 77%; Kp [15]: 0.08; Activity (Rattus norvegicus [16]): Active; Activity (Rattus norvegicus [17]): Active
38	COc1ccc(S(=O)(=O)NCCc2ccccc2Br)cc1NC1CCN(C)CC1	
0.296	COc1ccc(S(=O)(=O)Nc2ccccc2Br)cc1NC1CCN(C)CC1	
0.02	COc1ccc(S(=O)(=O)Nc2cc(C)ccc2OC)cc1NC1CCN(C)CC1	
26	COc1ccc(S(=O)(=O)NCCc2ccccc2Cl)cc1NC1CCN(C)CC1	

Compound	Kb [1] [nM]	also measured
COc1ccc(S(=O)(=O)NCc2ccccc2)cc1N(C)C1CCN(C)CC1	3.9	
COc1ccc(S(=O)(=O)Nc2ccccc2Cl)cc1N(C)C1CCNCC1	0.86	
COc1ccc(S(=O)(=O)NCc2ccccc2)cc1N(C)C1CCNCC1	2.65	
CCN(c1cc(S(=O)(=O)Nc2ccccc2)ccc1OC)C1CCN(C)CC1	18.6	
COc1ccc(S(=O)(=O)Nc2ccccc2Br)cc1N(C)C1CCNCC1	0.2	
